# Values quoted from earlier work in patent US10194661B2, “Methods of making dazomet compositions” (priority 2013, dated 2019).
# Columns and labels:
# [1] = tested on: bees such as honeybees; details: application to wood, which prevents exposure to bees
Structure (SMILES),share of dazomet decomposition products (major product) (dazomet exposed to wood or moist soils),theoretical maximum decomposition rate / stoichiometric conversion rate to MITC (in wood),toxicity to bees [1]
"CN=C=S [MITC, methyl isothiocyanate]",approximately 98%,–,–
"CN1CSC(=S)N(C)C1 [dazomet, Tetrahydro-3,5-dimethyl-2H-1,3,5-thiadiazine-2-thione]",–,approximately 45%,relatively non-toxic and harmless
